Counter-ions that a name gives are not always drawn. Like-named read-outs stand apart in the source and are kept apart here.
Experiments:
HIV-1 = test: Anti-HIV-1 activity (EC50); type: cell-based
mtDNA = mtDNA IC50; type: cell-based
K65R = settings: FIG. 1
6TAM = settings: FIG. 1
M184V = settings: FIG. 1

For `Nc1ncnc2c1ncn2[C@@H]1O[C@H](OCP(=O)(O)O)C=C1F` [2′F-d4AP, (2′R, 5′R)-9-(3-fluoro-2,5-dihydro-5-phosphonomethoxy-2-furanyl)adenine di sodium salt], the EC50 (HIV-1; read-out: EC50 [uM] HIV-1) was 1 to 100 µM, the IC50 (mtDNA; FIG. 2, read-out: IC50 [uM] mtDNA) was 100 to 1000 µM and the CC50 (MT-2) was under 1000 µM.

For `Nc1nc(N)c2ncn([C@@H]3O[C@H](OCP(=O)(O)O)C=C3F)c2n1` [2′F-d4DAPP], the EC50 (HIV-1; read-out: EC50 [uM] HIV-1) was 100 to 1000 µM.

With `C[C@H](Cn1cnc2c(N)ncnc21)OCP(=O)(O)O` [Tenofovir] the EC50 (HIV-1; FIG. 1, read-out: EC50 [uM] HIV-1) was 1 to 100 µM, the IC50 (mtDNA; FIG. 1, read-out: mtDNA 1050) was 100 to 1000 µM and the CC50 (MT-2) was under 1000 µM. The “Resistance - fold EC50 K65R” value (K65R) was “+++ (+++=1-100)”, the “Resistance - fold EC50 6TAM” value (6TAM) was “+++ (+++=1-100)” and the “Resistance - fold EC50 M184V” value (M184V) was “++++ (++++=0.01-1)”.

`CCCOC(=O)[C@H](C)NP(=O)(CO[C@@H]1C=C(F)[C@H](n2cnc3c(N)ncnc32)O1)N[C@@H](C)C(=O)OCCC` [drawing 144 (Ala) n-Propyl] was tested, and the EC50 (HIV-1; Human immunodeficiency virus 1, FIG. 5, prodrugs by R1 (aa) and R2 (ester), read-out: EC50) was 0.1 to 1 µM.
